The text below walks through data of US9603364B2 (Dow AgroSciences LLC, priority 2013, dated 2017).

Holding throughout (assay): General post-emergent herbicidal activity, foliar application
Holding throughout (format): in vivo

For one test, the system named is Oryza sativa L. (rice). To be noted: Oryza sativa, 336 h, scored after 14 days, read-out: % Visual Growth Reduction ORYSA. The gist of the method:
(§1)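 Compounds in acetone/DMSO (97:3) diluted into aqueous spray with isopropanol, Atplus 411F crop oil and Triton X-155; top rate plus 1/2×–1/16× serial rates applied to foliage, solvent blank as control. Greenhouse, sub-irrigated; visual injury versus untreated plants scored 0–100% (100 = complete kill) after 14 days.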

Another test deals with Zea mays L. (corn). The note with it: 336 h, scored after 14 days, read-out: % Visual Growth Reduction ZEAMX. In a few lines: as §1
The subject of test [1] is Amaranthus retroflexus L. (pigweed, redroot). In a few lines: (§2)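 Visual injury ratings on a scale of 0 (none) to 100% (complete kill), taken 14 days after foliar post-emergence treatment of greenhouse plants and compared with untreated plants, were fitted by probit analysis to give GR20, GR50 and GR80 doses; some GR80 values are extrapolated from the slope. Sprays contained crop oil concentrate and surfactant, with rates from the highest down to 1/16×.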

The test system of test [2] is Viola tricolor L. (pansy). In a few lines: as §2
Test [3] deals with Chenopodium album L. (lambsquarters, common). The gist of the method:
as §2

In test [4] the test system is Echinochloa crus-galli (L.) Beauv. (barnyardgrass). In a few lines:
as §2

The subject of test [5] is Helianthus annuus L. (sunflower, common). The gist of the method:
as §2

The test system of test [6] is Euphorbia heterophylla L. (poinsettia, wild). The gist of the method:
as §2

Where [7] appears, read: calculated by probit analysis, dose for 80% visual injury, may be extrapolated.

Turning to `COC(=O)c1nc(C(C)(C)F)c(F)c(N)c1Cl` [Compound F8, Methyl 4-amino-3-chloro-5-fluoro-6-(2-fluoropropan-2-yl)picolinate], the plant injury at 40 g/ha with Oryza sativa L. (rice) (40 g ai/ha) and in the test on Zea mays L. (corn) (40 g ai/ha) was 0% in each case. Moreover, the plant injury at 80 g/ha in the test on Oryza sativa L. (rice) (80 g ai/ha) and in the test with Zea mays L. (corn) (80 g ai/ha) was 0% throughout. The plant injury at 160 g/ha worked out at 8% in the test on Oryza sativa L. (rice) (160 g ai/ha) and 0% with Zea mays L. (corn) (160 g ai/ha). The pest or weed control at 40 g/ha was determined as 90% in test [1] (Amaranthus retroflexus, 336 h, 40 g ai/ha, foliar post-emergent, scored after 14 days, read-out: % Visual Growth Reduction AMARE); 10% in test [2] (Viola tricolor, 336 h, 40 g ai/ha, foliar post-emergent, scored after 14 days, read-out: % Visual Growth Reduction VIOTR); 90% in test [3] (Chenopodium album, 336 h, 40 g ai/ha, foliar post-emergent, scored after 14 days, read-out: % Visual Growth Reduction CHEAL); 0% in test [4] (Echinochloa crus-galli, 336 h, 40 g ai/ha, foliar post-emergent, scored after 14 days, read-out: % Visual Growth Reduction ECHCG); 90% in test [5] (Helianthus annuus, 336 h, 40 g ai/ha, foliar post-emergent, scored after 14 days, read-out: % Visual Growth Reduction HELAN); 90% in test [6] (Euphorbia heterophylla, 336 h, 40 g ai/ha, foliar post-emergent, scored after 14 days, read-out: % Visual Growth Reduction EPHHL). In addition, the pest or weed control at 80 g/ha stood at 100% in test [1] (Amaranthus retroflexus, 336 h, 80 g ai/ha, foliar post-emergent, scored after 14 days, read-out: % Visual Growth Reduction AMARE); 50% in test [2] (Viola tricolor, 336 h, 80 g ai/ha, foliar post-emergent, scored after 14 days, read-out: % Visual Growth Reduction VIOTR); 90% in test [3] (Chenopodium album, 336 h, 80 g ai/ha, foliar post-emergent, scored after 14 days, read-out: % Visual Growth Reduction CHEAL); 0% in test [4] (Echinochloa crus-galli, 336 h, 80 g ai/ha, foliar post-emergent, scored after 14 days, read-out: % Visual Growth Reduction ECHCG); 90% in test [5] (Helianthus annuus, 336 h, 80 g ai/ha, foliar post-emergent, scored after 14 days, read-out: % Visual Growth Reduction HELAN); 100% in test [6] (Euphorbia heterophylla, 336 h, 80 g ai/ha, foliar post-emergent, scored after 14 days, read-out: % Visual Growth Reduction EPHHL). Besides, the pest or weed control at 160 g/ha in test [1] (Amaranthus retroflexus, 336 h, 160 g ai/ha, foliar post-emergent, scored after 14 days, read-out: % Visual Growth Reduction AMARE) was determined as 100%; in test [2] (Viola tricolor, 336 h, 160 g ai/ha, foliar post-emergent, scored after 14 days, read-out: % Visual Growth Reduction VIOTR), 70%; in test [3] (Chenopodium album, 336 h, 160 g ai/ha, foliar post-emergent, scored after 14 days, read-out: % Visual Growth Reduction CHEAL) it was 90%; in test [4] (Echinochloa crus-galli, 336 h, 160 g ai/ha, foliar post-emergent, scored after 14 days, read-out: % Visual Growth Reduction ECHCG), 50%; in test [5] (Helianthus annuus, 336 h, 160 g ai/ha, foliar post-emergent, scored after 14 days, read-out: % Visual Growth Reduction HELAN), 90%; in test [6] (Euphorbia heterophylla, 336 h, 160 g ai/ha, foliar post-emergent, scored after 14 days, read-out: % Visual Growth Reduction EPHHL) it was 100%. In addition, the “GR80 Value AMARE” value in test [1] (setting [7]) is 25.1 g ai/ha. For the same molecule, in test [2] (setting [7]), the “GR80 Value VIOTR” value was 185 g ai/ha. For the same molecule, the “GR80 Value CHEAL” value in test [3] (setting [7]) was 36.9 g ai/ha. In addition, the “GR80 Value ECHCG” value in test [4] (setting [7]) is on record as 213 g ai/ha. In addition, the “GR80 Value HELAN” value in test [5] (setting [7]) is recorded as 18.6 g ai/ha. Further, in test [6] (setting [7]), the “GR80 Value EPHHL” value was 17.9 g ai/ha.

With `COC(=O)c1nc(C(C)CF)cc(N)c1Cl` (stereo not shown) [Compound F20, methyl 4-amino-3-chloro-6-(1-fluoropropan-2-yl)picolinate], the plant injury at 140 g/ha in the test on Oryza sativa L. (rice) (140 g ai/ha) and with Zea mays L. (corn) (140 g ai/ha) was 0% throughout. The pest or weed control at 140 g/ha in test [1] (Amaranthus retroflexus, 336 h, 140 g ai/ha, foliar post-emergent, scored after 14 days, read-out: % Visual Growth Reduction AMARE) turned out to be 95%; in test [2] (Viola tricolor, 336 h, 140 g ai/ha, foliar post-emergent, scored after 14 days, read-out: % Visual Growth Reduction VIOTR), 30%; in test [3] (Chenopodium album, 336 h, 140 g ai/ha, foliar post-emergent, scored after 14 days, read-out: % Visual Growth Reduction CHEAL) it was 80%; in test [4] (Echinochloa crus-galli, 336 h, 140 g ai/ha, foliar post-emergent, scored after 14 days, read-out: % Visual Growth Reduction ECHCG) it was 0%; in test [5] (Helianthus annuus, 336 h, 140 g ai/ha, foliar post-emergent, scored after 14 days, read-out: % Visual Growth Reduction HELAN), 50%; in test [6] (Euphorbia heterophylla, 336 h, 140 g ai/ha, foliar post-emergent, scored after 14 days, read-out: % Visual Growth Reduction EPHHL), 95%.

For `C=C(F)c1cc(N)c(Cl)c(C(=O)OC)n1` [Compound F6, methyl 4-amino-3-chloro-6-(1-fluorovinyl)picolinate], the plant injury at 280 g/ha in the test with Oryza sativa L. (rice) (280 g ai/ha) and with Zea mays L. (corn) (280 g ai/ha) was 0% throughout. Also, the pest or weed control at 280 g/ha in test [1] (Amaranthus retroflexus, 336 h, 280 g ai/ha, foliar post-emergent, scored after 14 days, read-out: % Visual Growth Reduction AMARE) amounted to 40%; in test [2] (Viola tricolor, 336 h, 280 g ai/ha, foliar post-emergent, scored after 14 days, read-out: % Visual Growth Reduction VIOTR) it was 0%; in test [3] (Chenopodium album, 336 h, 280 g ai/ha, foliar post-emergent, scored after 14 days, read-out: % Visual Growth Reduction CHEAL), 90%; in test [4] (Echinochloa crus-galli, 336 h, 280 g ai/ha, foliar post-emergent, scored after 14 days, read-out: % Visual Growth Reduction ECHCG), 0%; in test [5] (Helianthus annuus, 336 h, 280 g ai/ha, foliar post-emergent, scored after 14 days, read-out: % Visual Growth Reduction HELAN) it was 20%; in test [6] (Euphorbia heterophylla, 336 h, 280 g ai/ha, foliar post-emergent, scored after 14 days, read-out: % Visual Growth Reduction EPHHL) it was 60%.
